Laboratory results from patent US4623662A, “Antiatherosclerotic ureas and thioureas” (American Cyanamid Company, priority 1985, dated 1986).
“And” between values parts separate entries of the source, which are not always exact repeats. Identical values can stand only once. Like-named read-outs stand apart in the source and are kept apart here.

Key:
[1] = system: cholesterol absorption; assay: Inhibition of cholesterol absorption in rats fed 1% cholesterol:0.5% cholic acid diet; assay type: in vivo, male Sprague-Dawley rats; details: po, 336 h, rat, dose .03% of the diet, 2 weeks
In short: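 Compound was mixed into the diet (0.001-0.03%) of male Sprague-Dawley rats, 150-170 g, on a 1% cholesterol/0.5% cholic acid regimen for 2 weeks. At sacrifice, serum cholesterol (enzymatic) and liver neutral-sterol cholesterol were measured; values given as percent of compound-free control rats.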

[2] = target: T1, fatty acyl CoA: cholesterol acyl transferase (ACAT) (Rattus norvegicus, UniProt O70536); assay: Inhibition of fatty acyl CoA:cholesterol acyl transferase (ACAT), rat adrenal enzyme; assay type: biochemical
T1 construct: The supernatant, containing the microsomal fraction, served as the source of the cholesterol-esterifying enzyme; from tissue; host or cells: rat adrenals, supernatant of 1,000 x g centrifugation containing the microsomal fraction
T1 sequence (O70536 1-545): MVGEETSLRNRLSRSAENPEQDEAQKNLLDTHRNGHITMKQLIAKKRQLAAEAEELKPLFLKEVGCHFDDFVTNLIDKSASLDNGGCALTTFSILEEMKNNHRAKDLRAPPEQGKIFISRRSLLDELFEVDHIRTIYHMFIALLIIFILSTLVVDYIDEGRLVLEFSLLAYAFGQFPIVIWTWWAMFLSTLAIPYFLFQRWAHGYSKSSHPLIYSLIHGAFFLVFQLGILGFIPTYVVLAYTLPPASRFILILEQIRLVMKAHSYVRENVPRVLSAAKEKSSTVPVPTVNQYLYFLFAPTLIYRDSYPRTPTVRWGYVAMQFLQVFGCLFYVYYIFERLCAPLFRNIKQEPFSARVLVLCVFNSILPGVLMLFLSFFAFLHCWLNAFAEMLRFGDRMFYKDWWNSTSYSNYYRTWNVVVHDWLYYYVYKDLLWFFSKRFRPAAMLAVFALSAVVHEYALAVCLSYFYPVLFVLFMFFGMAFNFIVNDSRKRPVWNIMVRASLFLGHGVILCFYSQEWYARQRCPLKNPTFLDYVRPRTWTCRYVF
In short: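 Read-out was scintillation counting of [14C]cholesteryl ester, isolated by TLC, after 10 min at 37° C with [14C]oleoyl CoA. Beforehand, compound (final 5.2 μg/ml in single-concentration tests) was preincubated 10 min at 37° C with BSA and rat adrenal microsomal supernatant in pH 7.4 phosphate. Results given as percent inhibition versus control or IC50 over several concentrations.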

[3] = read-out: LS (liver sterol), percentage of control values
[4] = read-out: SS (serum sterol), percentage of control values
[5] = rat adrenal ACAT, final concentration 5.2 μg/ml, read-out: % Inhibition

`CCCCc1ccc(CN(Cc2ccccc2)C(=O)Nc2cc(C)c(C)cc2C)cc1` [1-Benzyl-1-(4-n-butylbenzyl)-3-(2,4,5-trimethylphenyl)urea] gave a response vs control in vivo at 0.03 % [1, 3] of 10%, a response vs control in vivo at 0.03 % [1, 4] of 50% and an inhibition at 5.2 µg/mL [2, 5] of 90.5%.
`CCCCc1ccc(CN(Cc2ccccc2)C(=O)Nc2c(C)cc(C)cc2C)cc1` [1-Benzyl-1-(4-n-butylbenzyl)-3-(2,4,6-trimethylphenyl)urea] gave a response vs control in vivo at 0.03 % [1, 3] of 13%, a response vs control in vivo at 0.03 % [1, 4] of 53% and an inhibition at 5.2 µg/mL [2, 5] of 92.8%.
`CCCCc1ccc(CN(Cc2ccccc2)C(=O)Nc2ccc(C)cc2C)cc1` [1-Benzyl-1-(4-n-butylbenzyl)-3-(2,4-dimethylphenyl)urea] was tested, and the response vs control in vivo at 0.03 % [1, 3] was 20%, the response vs control in vivo at 0.03 % [1, 4] was 41% and the inhibition at 5.2 µg/mL [2, 5] was 91.9%.
`CCCCc1ccc(CN(Cc2ccccc2)C(=O)Nc2ccc(Cl)cc2C)cc1` [1-Benzyl-1-(4-n-butylbenzyl)-3-(2-methyl-4-chlorophenyl)urea] showed a response vs control in vivo at 0.03 % [1, 3] of 21%, a response vs control in vivo at 0.03 % [1, 4] of 70% and an inhibition at 5.2 µg/mL [2, 5] of 94.3%.
Work on `CCCCc1ccc(CN(Cc2ccccc2)C(=O)Nc2ccc(CCCC)cc2)cc1` [1-Benzyl-1-(4-n-butylbenzyl)-3-(4-n-butylphenyl)urea] yielded a response vs control in vivo at 0.03 % [1, 3] of 61%, a response vs control in vivo at 0.03 % [1, 4] of 53% and an inhibition at 5.2 µg/mL [2, 5] of 92%.
`CCCCOc1ccc(CN(Cc2ccccc2)C(=O)Nc2cc(Cl)c(Cl)cc2Cl)cc1` [1-Benzyl-1-(4-n-butyloxybenzyl)-3-(2,4,5-trichlorophenyl)urea] gave a response vs control in vivo at 0.03 % [1, 3] of 65%, a response vs control in vivo at 0.03 % [1, 4] of 66% and an inhibition at 5.2 µg/mL [2, 5] of 89%.
Work on `CCCCN(Cc1ccccc1)C(=O)Nc1c(Cl)cc(Cl)cc1Cl` [1-Benzyl-1-( -n-butyl)-3-(2,4,6-trichlorophenyl)urea] yielded a response vs control in vivo at 0.03 % [1, 3] of 32%, a response vs control in vivo at 0.03 % [1, 4] of 48% and an inhibition at 5.2 µg/mL [2, 5] of 87.8%.
`CCCCN(Cc1ccccc1)C(=O)Nc1c(C)cccc1C` [1-Benzyl-1-( -n-butyl)-3-(2,6-dimethylphenyl)urea] showed a response vs control in vivo at 0.03 % [1, 3] of 91%, a response vs control in vivo at 0.03 % [1, 4] of 68% and an inhibition at 5.2 µg/mL [2, 5] of 83.1%.
With `CCCCN(Cc1ccccc1)C(=O)Nc1cc(C)cc(C)c1` [1-Benzyl-1-( -n-butyl)-3-(3,5-dimethylphenyl)urea] the response vs control in vivo at 0.03 % [1, 3] was 75%, the response vs control in vivo at 0.03 % [1, 4] was 93% and the inhibition at 5.2 µg/mL [2, 5] was 94.2%.
Work on `CCCCN(Cc1ccccc1)C(=O)Nc1ccc(C)cc1C` [1-Benzyl-1-(n-butyl)-3-(2,4-dimethylphenyl)urea] yielded a response vs control in vivo at 0.03 % [1, 3] of 65%, a response vs control in vivo at 0.03 % [1, 4] of 70% and an inhibition at 5.2 µg/mL [2, 5] of 91.3%.
`O=C(Nc1c(Cl)cc(Cl)cc1Cl)N(Cc1ccccc1)C(Cc1ccccc1)c1ccc(OCc2ccccc2)cc1` (stereo not drawn) [1-Benzyl-1-[2-phenyl-1-(4-benzyloxyphenyl)ethyl]-3-(2,4,6-trichlorophenyl)urea] was tested, and the response vs control in vivo at 0.03 % [1, 3] was 64%, the response vs control in vivo at 0.03 % [1, 4] was 95% and the inhibition at 5.2 µg/mL [2, 5] was 95%.
In the case of `Cc1cc(C)c(NC(=O)N(Cc2ccccc2)C(Cc2ccccc2)c2ccc(OCc3ccccc3)cc2)c(C)c1` (stereo not drawn) [1-Benzyl-1-[2-phenyl-1-(4-benzyloxyphenyl)ethyl]-3-(2,4,6-trimethylphenyl)urea], the response vs control in vivo at 0.03 % [1, 3] was 49%, the response vs control in vivo at 0.03 % [1, 4] was 60% and the inhibition at 5.2 µg/mL [2] was 90%.
For `O=C(Nc1ccc(F)cc1F)N(Cc1ccccc1)C(Cc1ccccc1)c1ccc(OCc2ccccc2)cc1` (stereo not drawn) [1-Benzyl-1-[2-phenyl-1-(4-benzyloxyphenyl)ethyl]-3-(2,4-difluorophenyl)urea], the response vs control in vivo at 0.03 % [1, 3] was 27%, the response vs control in vivo at 0.03 % [1, 4] was 48% and the “% Inhibition” value ([2]; rat adrenal ACAT, final concentration 5.2 μg/ml) was 70.0% and 91.0%.
`Cc1cc(Cl)ccc1NC(=O)N(Cc1ccccc1)C(Cc1ccccc1)c1ccc(OCc2ccccc2)cc1` (stereo not drawn) [1-Benzyl-1-[2-phenyl-1-(4-benzyloxyphenyl)ethyl]-3-(2-methyl-4-chlorophenyl)urea] gave a response vs control in vivo at 0.03 % [1, 3] of 31%, a response vs control in vivo at 0.03 % [1, 4] of 50% and an inhibition at 5.2 µg/mL [2, 5] of 89.3%.
`CCCCCCCN(Cc1cccs1)C(=O)Nc1cc(C)c(C)cc1C` [1-Heptyl-1-(2-thienylmethyl)-3-(2,4,5-trimethylphenyl)urea] was tested, and the response vs control in vivo at 0.03 % [1, 3] was 25%, the response vs control in vivo at 0.03 % [1, 4] was 54% and the inhibition at 5.2 µg/mL [2] was 90%.
Work on `CCCCCCCN(Cc1cccs1)C(=O)Nc1c(Cl)cc(Cl)cc1Cl` [1-Heptyl-1-(2-thienylmethyl)-3-(2,4,6-trichlorophenyl)urea] yielded a response vs control in vivo at 0.03 % [1, 3] of 28%, a response vs control in vivo at 0.03 % [1, 4] of 56% and an inhibition at 5.2 µg/mL [2] of 90%.
Work on `Cc1ccc(CCN(Cc2cccc(Cl)c2)C(=O)Nc2ccc(C)cc2C)cc1` [1-[2-(4-Methylphenyl)ethyl]-1-(3-chlorobenzyl)-3-(2,4-dimethylphenyl)urea] yielded a response vs control in vivo at 0.03 % [1, 3] of 20%, a response vs control in vivo at 0.03 % [1, 4] of 50% and an inhibition at 5.2 µg/mL [2, 5] of 67.6%.
For `CCCCOc1ccc(CN(Cc2cccs2)C(=O)Nc2cc(C)c(C)cc2C)cc1` [1-[(4-Butoxyphenyl)methyl]-1-(2-thienylmethyl)-3-(2,4,5-trimethylphenyl)urea], the response vs control in vivo at 0.03 % [1, 3] was 16%, the response vs control in vivo at 0.03 % [1, 4] was 41% and the inhibition at 5.2 µg/mL [2] was 90%.
Work on `CCCCc1ccc(CN(CCCCCCCl)C(=O)Nc2cc(C)c(C)cc2C)cc1` [1-[(4-Butylphenyl)methyl]-1-(6-chlorohexyl)-3-(2,4,5-trimethylphenyl)urea] yielded a response vs control in vivo at 0.03 % [1, 3] of 15%, a response vs control in vivo at 0.03 % [1, 4] of 40% and an inhibition at 5.2 µg/mL [2] of 90%.
`CCCCc1ccc(CN(CCCCCCCl)C(=O)Nc2c(Cl)cc(Cl)cc2Cl)cc1` [1-[(4-Butylphenyl)methyl]-1-(6-chlorohexyl)-3-(2,4,6-trichlorophenyl)urea] showed a response vs control in vivo at 0.03 % [1, 3] of 19%, a response vs control in vivo at 0.03 % [1, 4] of 34% and an inhibition at 5.2 µg/mL [2] of 90%.
`CCCCc1ccc(CN(CCCCCCCl)C(=O)Nc2ccc(Cl)cc2C)cc1` [1-[(4-Butylphenyl)methyl]-1-(6-chlorohexyl)-3-(4-chloro-2-methylphenyl)urea] showed a response vs control in vivo at 0.03 % [1, 3] of 35%, a response vs control in vivo at 0.03 % [1, 4] of 46% and an inhibition at 5.2 µg/mL [2] of 90%.
Compound `CCCCc1ccc(CN(CCCCCCC#N)C(=O)Nc2cc(C)c(C)cc2C)cc1` [1-[(4-Butylphenyl)methyl]-1-(6-cyanohexyl)-3-(2,4,5-trimethylphenyl)urea] has a response vs control in vivo at 0.03 % [1, 3] of 28%, a response vs control in vivo at 0.03 % [1, 4] of 48% and an inhibition at 5.2 µg/mL [2] of 90%.
For `CCCCc1ccc(CN(CCCCCCC#N)C(=O)Nc2c(Cl)cc(Cl)cc2Cl)cc1` [1-[(4-Butylphenyl)methyl]-1-(6-cyanohexyl)-3-(2,4,6-trichlorophenyl)urea], the response vs control in vivo at 0.03 % [1, 3] was 35%, the response vs control in vivo at 0.03 % [1, 4] was 31% and the inhibition at 5.2 µg/mL [2] was 90%.
`CCCCc1ccc(CN(CCCCCCO)C(=O)Nc2cc(C)c(C)cc2C)cc1` [1-[(4-Butylphenyl)methyl]-1-(6-hydroxyhexyl)-3-(2,4,5-trimethylphenyl)urea] showed a response vs control in vivo at 0.03 % [1, 3] of 39%, a response vs control in vivo at 0.03 % [1, 4] of 57% and an inhibition at 5.2 µg/mL [2] of 90%.
`CCCCc1ccc(CN(CCCCCCO)C(=O)Nc2c(Cl)cc(Cl)cc2Cl)cc1` [1-[(4-Butylphenyl)methyl]-1-(6-hydroxyhexyl)-3-(2,4,6-trichlorophenyl)urea] gave a response vs control in vivo at 0.03 % [1, 3] of 32%, a response vs control in vivo at 0.03 % [1, 4] of 35% and an inhibition at 5.2 µg/mL [2] of 90%.
For `CCCCCCCN(Cc1ccc(CCCC)cc1)C(=O)Nc1ccc(F)cc1F` [1-[(4-Butylphenyl)methyl]-1-(n-heptyl)-3-[2,4-difluorophenyl]urea], the response vs control in vivo at 0.03 % [1, 3] was 19%, the response vs control in vivo at 0.03 % [1, 4] was 35% and the inhibition at 5.2 µg/mL [2] was 90%.
`CCCCc1ccc(CN(CCOCCO)C(=O)Nc2cc(C)c(C)cc2C)cc1` [1-[(4-Butylphenyl)methyl]-1-[2-(2-hydroxyethoxy)ethyl]-3-(2,4,5-trimethylphenyl)urea] gave a response vs control in vivo at 0.03 % [1, 3] of 76%, a response vs control in vivo at 0.03 % [1, 4] of 100% and an inhibition at 5.2 µg/mL [2, 5] of 85.9%.
`CCCCc1ccc(CN(CCCCC[Si](C)(C)C)C(=O)Nc2ccc(F)cc2F)cc1` [1-[(4-Butylphenyl)methyl]-3-(2,4-difluorophenyl)-1-[5-(trimethylsilyl)pentyl]urea] gave a response vs control in vivo at 0.03 % [1, 3] of 57%, a response vs control in vivo at 0.03 % [1, 4] of 62% and an inhibition at 5.2 µg/mL [2] of 90%.
Compound `CCCCc1ccc(CN(CCCCCCC#N)C(=O)Nc2ccc(Cl)cc2C)cc1` [1-[(4-Butylphenyl)methyl]-3-(4-chloro-2-methylphenyl)-1-(6-cyanohexyl)urea] has a response vs control in vivo at 0.03 % [1, 3] of 50%, a response vs control in vivo at 0.03 % [1, 4] of 48% and an inhibition at 5.2 µg/mL [2] of 90%.
